Key:
PNY1504 [1] = test: Fermentation of glucose to isobutanol by PNY1504 in defined medium with or without antimycin A; format: cell-based, Saccharomyces cerevisiae; details: glucose 35 g/L
Experimental: (§1) Strain PNY1504 was pre-cultured in the defined medium SC-GE as described above, except that the medium was buffered to pH 6. Production cultures used the same SC medium, except either glucose or xylose was added to a final concentration of 35 g/L, and penicillin G (Sigma P3032) was added at 25 μg/ml.
(§2) Xylulose can be taken up by yeast and metabolized via the pentose phosphate pathway. […] Souto-Maior A M, et al., J Biotechnol. 143:119-23 (2009). Thus, in order to increase flux towards fermentative products, cultures were treated with the respiratory inhibitor antimycin A (1 μM; Sigma A8674).

PNY1504 [2] = test: Fermentation of xylose to isobutanol by PNY1504 in defined medium with xylose isomerase, with or without antimycin A; format: cell-based, Saccharomyces cerevisiae
Experimental: as §1
Unless it is genetically engineered to do so, S. cerevisiae is unable to ferment xylose, but it is able to ferment xylulose. In order to test whether xylose is available for fermentation to isobutanol, it was converted to xylulose in situ by xylose isomerase (10 g/L; Sigma G4166) essentially as described in Lastick S. M., et al., Applied Microbiology and Biotechnology 30:574-579 (1989), Wang P. Y., et al., Biotechnology Letters 2:273-278 (1980) and Chandrakant P & Bisaria V S, Appl Microbiol Biotechnol 53:301-309 (2000).
as §2

[3] = antimycin A-treated culture (1 μM)

antimycin A was tested, and the “Time in which glucose (hexose) was consumed” value (PNY1504 [1]; antimycin A 1 μM) was ≤ 24 h, the Isobutanol titer (PNY1504 [1]; [3]) was ~3.3 g/L and the Isobutanol yield (PNY1504 [1]; [3]) was “approximately 0.08 g·g^−1”. The “Effect on biomass accumulation” value (PNY1504 [2]; antimycin A 1 μM) was “reduce biomass accumulation slightly”, the “Effect on xylose consumption profile” value (PNY1504 [2]; antimycin A 1 μM) was “not significantly affected” and the Isobutanol production (PNY1504 [2]; antimycin A 1 μM, at 78 hours) was 0.5 g/L. The Isobutanol yield (PNY1504 [2]; in the presence of antimycin A) was 0.04 g/g.

From US20130035515A1, “LIGNOCELLULOSIC HYDROLYSATES AS FEEDSTOCKS FOR ISOBUTANOL FERMENTATION” (priority 2011, published 2013)
